This data set relates to human apolipoprotein B mRNA. The data set is described as follows: Inhibition of human apolipoprotein B mRNA levels in HepG2 cells, quantitative real-time PCR. In kind it is cell-based. As to conditions: for % INHIB (inhibition of human apolipoprotein B mRNA levels): HepG2 cells treated with 150 nM of compound, quantitative real-time PCR; for % INHIB / % INHIB 50 nm / % INHIB 150 nm / % Change in apolipoprotein B mRNA expression: HepG2 cells; for % Change in apolipoprotein B mRNA expression: 24 hour (Table 41). On the procedure:
The human hepatoblastoma cell line HepG2 was obtained from the American Type Culture Collection (Manassas, Va.). HepG2 cells were routinely cultured in Eagle's MEM supplemented with 10% fetal calf serum, non-essential amino acids, and 1 mM sodium pyruvate (Gibco/Life Technologies, Gaithersburg, Md.). Cells were routinely passaged by trypsinization and dilution when they reached 90% confluence. Cells were seeded into 96-well plates (Falcon-Primaria #3872) at a density of 7000 cells/well for use in RT-PCR analysis.
When cells reached 80% confluency, they were treated with oligonucleotide. For cells grown in 96-well plates, wells were washed once with 200 μL OPTI-MEM™-1 reduced-serum medium (Gibco BRL) and then treated with 130 μL of OPTI-MEM™-1 containing 3.75 μg/mL LIPOFECTIN™ (Gibco BRL) and the desired concentration of oligonucleotide. After 4-7 hours of treatment, the medium was replaced with fresh medium. Cells were harvested 16-24 hours after oligonucleotide treatment.
Quantitation of apolipoprotein B mRNA levels was determined by real-time quantitative PCR using the ABI PRISM™ 7700 Sequence Detection System (PE-Applied Biosystems, Foster City, Calif.) according to manufacturer's instructions. This is a closed-tube, non-gel-based, fluorescence detection system which allows high-throughput quantitation of polymerase chain reaction (PCR) products in real-time. As opposed to standard PCR, in which amplification products are quantitated after the PCR is completed, products in real-time quantitative PCR are quantitated as they accumulate. This is accomplished by including in the PCR reaction an oligonucleotide probe that anneals specifically between the forward and reverse PCR primers, and contains two fluorescent dyes. A reporter dye (e.g., JOE, FAM, or VIC, obtained from either Operon Technologies Inc., Alameda, Calif. or PE-Applied Biosystems, Foster City, Calif.) is attached to the 5′ end of the probe and a quencher dye (e.g., TAMRA, obtained from either Operon Technologies Inc., Alameda, Calif. or PE-Applied Biosystems, Foster City, Calif.) is attached to the 3′ end of the probe. When the probe and dyes are intact, reporter dye emission is quenched by the proximity of the 3′ quencher dye. During amplification, annealing of the probe to the target sequence creates a substrate that can be cleaved by the 5′-exonuclease activity of Taq polymerase. […] With each cycle, additional reporter dye molecules are cleaved from their respective probes, and the fluorescence intensity is monitored at regular intervals by laser optics built into the ABI PRISM™ 7700 Sequence Detection System. In each assay, a series of parallel reactions containing serial dilutions of mRNA from untreated control samples generates a standard curve that is used to quantitate the percent inhibition after antisense oligonucleotide treatment of test samples.
PCR reagents were obtained from PE-Applied Biosystems, Foster City, Calif. RT-PCR reactions were carried out by adding 25 μL PCR cocktail (1× TAQMAN™ buffer A, 5.5 mM MgCl2, 300 μM each of DATP, dCTP and dGTP, 600 μM of dUTP, 100 nM each of forward primer, reverse primer, and probe, 20 Units RNAse inhibitor, 1.25 Units AMPLITAQ GOLD™, and 12.5 Units MuLV reverse transcriptase) to 96 well plates containing 25 μL total RNA solution. The RT reaction was carried out by incubation for 30 minutes at 48° C. Following a 10 minute incubation at 95° C. to activate the AMPLITAQ GOLD™, 40 cycles of a two-step PCR protocol were carried out: 95° C. for 15 seconds (denaturation) followed by 60° C. for 1.5 minutes (annealing/extension).
Gene target quantities obtained by real time RT-PCR are normalized using either the expression level of GAPDH, a gene whose expression is constant, or by quantifying total RNA using RiboGreen™ (Molecular Probes, Inc. Eugene, Oreg.). GAPDH expression is quantified by real time RT-PCR, by being run simultaneously with the target, multiplexing, or separately. […]
(In general: Real-time PCR tracks product formation cycle by cycle.)

[1] abbreviates: human apolipoprotein B mRNA, oligonucleotides targeting genomic sequence SEQ ID NO 334, averages from two experiments.

In the oligonucleotide strings, read from the 5' end, every base follows the letter of its sugar. An asterisk marks phosphorothioate; unmarked linkages are phosphodiester. Other units and linkages are bracketed, terminal groups are in braces. A string of capitals states the bases alone. e = 2'-O-(2-methoxyethyl) (MOE); [5mC] = 5-methylcytosine; d = 2'-deoxy (DNA)

Data on 29 substances can be found in US7803930B2, “Antisense modulation of apolipoprotein B-expression” (Isis Pharmaceuticals, Inc., priority 2002, dated 2010).

“281586 (eT*eG*eG*eA*e[5mC]*dA*dG*dA*d[5mC]*d[5mC]*dA*dG*dG*d[5mC]*dT*eG*eA*e[5mC]*eA*eT; antisense) [compound 281586]”: where the note is “averages from two experiments”, the “% INHIB (inhibition of human apolipoprotein B mRNA levels)” value turned out to be 80%.
For the substance “301109 (antisense eG*eT*eT*eT*e[5mC]*dA*dT*dG*dG*dA*dA*d[5mC]*dT*d[5mC]*dA*eG*e[5mC]*eG*e[5mC]*eA) [compound 301109]”, under setting [1], the “% INHIB” value is 44%.
Take “271021 (antisense eG*eA*eG*eT*e[5mC]*dT*d[5mC]*dT*dG*dA*dG*dT*d[5mC]*dA*d[5mC]*e[5mC]*eT*e[5mC]*eA*e[5mC]) [compound 271021]”: the “% INHIB (inhibition of human apolipoprotein B mRNA levels)” value (averages from two experiments) is listed as 38%.
On to “281596 (eT*eG*eA*e[5mC]*eT*dG*d[5mC]*dT*dT*d[5mC]*dA*dT*d[5mC]*dA*d[5mC]*eT*eG*eA*eG*eG; antisense) [compound 281596]”, for which, for the setting “averages from two experiments”, the “% INHIB (inhibition of human apolipoprotein B mRNA levels)” value turned out to be 77%.
In the case of “301075 (eT*eT*e[5mC]*eA*eA*dG*dG*dG*d[5mC]*d[5mC]*dA*d[5mC]*dT*dG*d[5mC]*eT*eA*eT*e[5mC]*eA; antisense) [compound 301075]”, the “% INHIB” value under setting [1] is 52%.
Take “281592 (eG*e[5mC]*eT*eG*eA*dT*d[5mC]*dA*dG*dA*dG*dT*dT*dG*dA*e[5mC]*eA*eA*eG*eG; antisense) [compound 281592]”: the “% INHIB (inhibition of human apolipoprotein B mRNA levels)” value (averages from two experiments) stood at 56%.
Regarding “308591 (antisense eG*e[5mC]*eA*e[5mC]*e[5mC]*dT*dT*d[5mC]*dT*dG*d[5mC]*dT*dT*dG*dA*eG*eT*eT*eA*e[5mC]) [compound 308591]”, the “% INHIB 50 nm” value (Table 11 gene walk, 50 nM, averages from two experiments) was 76%. Also, the “% INHIB 150 nm” value (Table 11 gene walk, 150 nM, averages from two experiments) was 92%.
For “301090 (antisense eA*eT*eT*eA*eG*dA*d[5mC]*dT*dG*dG*dA*dA*dG*d[5mC]*dA*eT*e[5mC]*e[5mC]*eT*eG) [compound 301090]”, the “% INHIB” value under setting [1] is given as 39%.
For the substance “301198 (antisense e[5mC]*eG*eG*eT*eG*d[5mC]*dA*d[5mC]*d[5mC]*d[5mC]*dT*dT*dT*dA*d[5mC]*e[5mC]*eT*eG*eA*eG) [compound 301198]”, the “% INHIB” value under setting [1] is given as 28%.
Consider “281627 (antisense e[5mC]*e[5mC]*eA*eG*eA*dG*dA*dG*d[5mC]*dG*dA*dG*dT*dT*dT*e[5mC]*e[5mC]*e[5mC]*eA*eT) [compound 281627]”, for which the “% INHIB (inhibition of human apolipoprotein B mRNA levels)” value (averages from two experiments) is on record as 82%.
“332784 (antisense GCCTCAGTCT; linkages s4 o1 s4 (s phosphorothioate, o phosphodiester), sugars by position and methylation of C not given here; 2'-MOE wings flank a DNA gap) [compound 332784]”: the “% Change in apolipoprotein B mRNA expression” value was “+12%” (10 nM), −1% (50 nM) and “+7%” (150 nM).
For the substance “281587 (eA*eT*eG*eT*eG*dT*dA*d[5mC]*dT*dT*d[5mC]*d[5mC]*dG*dG*dA*eG*eG*eT*eG*e[5mC]; antisense) [compound 281587]”, for the setting “averages from two experiments”, the “% INHIB (inhibition of human apolipoprotein B mRNA levels)” value came out at 77%.
In the case of “301095 (antisense e[5mC]*eA*eA*eG*eG*dA*dA*dG*d[5mC]*dA*d[5mC]*dA*d[5mC]*d[5mC]*dA*eT*eG*eT*e[5mC]*eA) [compound 301095]”, under setting [1], the “% INHIB” value is 38%.
Consider “301179 (antisense e[5mC]*eA*eG*e[5mC]*eT*d[5mC]*dT*dA*dA*dT*d[5mC]*dT*dA*dA*dA*eG*eA*e[5mC]*eA*eT) [compound 301179]”, for which the “% INHIB” value under setting [1] was determined as 22%.
As to “308634 (AGGTTACCAGCCACATGCAG; 10-10-0 MOE gapmer, phosphorothioate, chemistry not fully specified) [compound 308634]”, under “50 nm oligonucleotide, variable deoxy gap position”, the “% INHIB 50 nm” value was found to be 45%. For the same substance, the “% INHIB 150 nm” value (150 nm oligonucleotide, variable deoxy gap position) worked out at 67%.
Turning to “332778 (antisense GCCTCAGTCTGCTTC; sugars from the 5' end e5 d10, linkages s4 o1 s9 (s phosphorothioate, o phosphodiester), methylation of C not given here) [compound 332778]”, the “% Change in apolipoprotein B mRNA expression” value runs as follows: (10 nM) −11%; (50 nM) −20%; (150 nM) −58%.
Regarding “301046 (eA*eG*eT*eT*eT*dA*dG*d[5mC]*dA*dA*dA*dA*dT*dA*dA*e[5mC]*eT*e[5mC]*eA*eG; antisense) [compound 301046]”, the “% INHIB (inhibition of human apolipoprotein B mRNA levels)” value (averages from two experiments) is 80%.
Regarding “301207 (antisense eT*eT*e[5mC]*e[5mC]*e[5mC]*dA*dT*dT*d[5mC]*d[5mC]*d[5mC]*dT*dG*dA*dA*eA*eG*e[5mC]*eA*eG) [compound 301207]”, the “% INHIB” value under setting [1] is reported as 13%.
Consider “301074 (eG*eA*eG*e[5mC]*eT*d[5mC]*dA*dT*dA*d[5mC]*d[5mC]*dT*dG*dT*d[5mC]*e[5mC]*e[5mC]*eA*eG*eA; antisense) [compound 301074]”, for which, under setting [1], the “% INHIB” value turned out to be 75%.
In the case of “271027 (e[5mC]*e[5mC]*e[5mC]*eA*eT*dG*d[5mC]*dT*d[5mC]*d[5mC]*dG*dT*dT*d[5mC]*dT*e[5mC]*eA*eG*eG*eT; antisense) [compound 271027]”, where the note is “averages from two experiments”, the “% INHIB (inhibition of human apolipoprotein B mRNA levels)” value worked out at 26%.
In the case of “301174 (antisense eG*eT*eG*e[5mC]*e[5mC]*dA*dT*dG*d[5mC]*dT*dA*dG*dG*dT*dG*eG*e[5mC]*e[5mC]*eA*eT) [compound 301174]”, the “% INHIB” value under setting [1] is 37%.
On to “301054 (eT*e[5mC]*e[5mC]*eT*e[5mC]*d[5mC]*dA*dT*dA*d[5mC]*d[5mC]*dT*dT*dG*d[5mC]*eA*eG*eT*eT*eG; antisense) [compound 301054]”, for which the “% INHIB” value under setting [1] is reported as 0%.
“301158 (e[5mC]*eT*eA*e[5mC]*e[5mC]*dT*d[5mC]*dA*dA*dA*dT*d[5mC]*dA*dA*dT*eA*eT*eG*eT*eT; antisense) [compound 301158]”: the “% INHIB” value under setting [1] is listed as 28%.
Turning to “271015 (antisense eT*eG*eT*eG*eT*dT*d[5mC]*d[5mC]*d[5mC]*dT*dG*dA*dA*dG*d[5mC]*eG*eG*e[5mC]*e[5mC]*eA) [compound 271015]”, the “% INHIB (inhibition of human apolipoprotein B mRNA levels)” value (averages from two experiments) worked out at 43%.
With “301175 (antisense eA*eG*e[5mC]*eA*eA*dA*dT*dT*dG*dG*dG*dA*dT*d[5mC]*dT*eG*eT*eG*e[5mC]*eT) [compound 301175]”, the “% INHIB” value under setting [1] is 29%.
As to “281617 (antisense eA*e[5mC]*e[5mC]*eA*e[5mC]*dA*dG*dA*dG*dT*d[5mC]*dA*dG*d[5mC]*d[5mC]*eT*eT*e[5mC]*eA*eT) [compound 281617]”, the “% INHIB (inhibition of human apolipoprotein B mRNA levels)” value (averages from two experiments) amounted to 89%.
On to “147810 (antisense eA*eT*eT*eT*e[5mC]*dA*dG*d[5mC]*dA*dT*dA*dT*dG*dA*dG*e[5mC]*e[5mC]*e[5mC]*eA*eT) [compound 147810]”, for which the “% INHIB” value (Table 1, 150 nM, averages from two experiments) amounted to 0%.
Consider “281647 (eT*eG*eA*eG*eT*dG*dA*dG*dT*d[5mC]*dA*dA*dT*d[5mC]*dA*eG*e[5mC]*eT*eT*e[5mC]) [compound 281647]”, for which the “% INHIB” value (Table 12, 150 nM, averages from two experiments) came out at 73%.
For the substance “301043 (eA*eA*eA*eA*eA*dT*dG*d[5mC]*d[5mC]*dA*dT*d[5mC]*d[5mC]*dT*dT*e[5mC]*eT*eG*eA*eG; antisense) [compound 301043]”, the “% INHIB (inhibition of human apolipoprotein B mRNA levels)” value (averages from two experiments) amounted to 81%.
